The source of these data is patent publication US10040781B2, “Tank-binding kinase inhibitor compounds” (Gilead Sciences, Inc., priority 2014, dated 2018).

In one assay the target is hJAK2 (Homo sapiens (Human), UniProt O60674). The experiment in a line: hJAK2 LANCE TR-FRET enzymatic assay. Type of assay: biochemical. The settings on record: read-out: JAK2 IC50.
The next assay concerns the target IKKε (Homo sapiens (Human), UniProt Q14164). Nature of the assay: IKKε TR-FRET enzymatic assay. The class given is biochemical. The following applies: TR-FRET, 2×Km ATP; geometric mean of minimum four determinations; read-out: IKKe IC50. Background: Time-resolved FRET reads energy transfer from a long-lived donor to a nearby acceptor.
The next assay deals with TBK1 (Homo sapiens (Human), UniProt Q9UHD2). Nature of the assay: TBK1 TR-FRET enzymatic assay.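 Note: phosphorylation of a biotinylated Ser/Thr peptide by purified full-length recombinant TBK1, read by TR-FRET after 240 min at 25 °C, IC50 is the geometric mean of at least four runs.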
TBK1, sequence (Q9UHD2 whole entry): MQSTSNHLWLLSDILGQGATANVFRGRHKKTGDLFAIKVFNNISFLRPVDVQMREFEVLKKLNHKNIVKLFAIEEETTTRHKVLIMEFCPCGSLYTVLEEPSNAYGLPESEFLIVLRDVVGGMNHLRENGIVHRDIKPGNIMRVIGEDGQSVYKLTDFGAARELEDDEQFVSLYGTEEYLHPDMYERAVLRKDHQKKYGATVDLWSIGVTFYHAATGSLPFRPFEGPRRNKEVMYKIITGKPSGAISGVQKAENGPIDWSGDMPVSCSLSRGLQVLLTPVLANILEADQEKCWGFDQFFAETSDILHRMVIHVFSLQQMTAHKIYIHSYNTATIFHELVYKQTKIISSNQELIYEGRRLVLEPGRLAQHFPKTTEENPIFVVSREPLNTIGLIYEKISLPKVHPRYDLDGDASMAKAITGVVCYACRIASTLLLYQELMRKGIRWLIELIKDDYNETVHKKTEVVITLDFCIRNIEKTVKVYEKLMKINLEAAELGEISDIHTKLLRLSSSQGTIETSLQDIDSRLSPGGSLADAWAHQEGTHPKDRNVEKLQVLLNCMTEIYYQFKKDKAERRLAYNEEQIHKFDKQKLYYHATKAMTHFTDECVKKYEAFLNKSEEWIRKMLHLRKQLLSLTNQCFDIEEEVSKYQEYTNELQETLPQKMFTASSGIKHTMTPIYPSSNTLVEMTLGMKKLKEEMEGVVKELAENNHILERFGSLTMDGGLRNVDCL

SMILES strings stand for the structures. Structures can show the parent of a compound that is named as a salt. A value given as a limit tells only on which side of the number the result lay.

hJAK2, sequence (O60674 whole entry): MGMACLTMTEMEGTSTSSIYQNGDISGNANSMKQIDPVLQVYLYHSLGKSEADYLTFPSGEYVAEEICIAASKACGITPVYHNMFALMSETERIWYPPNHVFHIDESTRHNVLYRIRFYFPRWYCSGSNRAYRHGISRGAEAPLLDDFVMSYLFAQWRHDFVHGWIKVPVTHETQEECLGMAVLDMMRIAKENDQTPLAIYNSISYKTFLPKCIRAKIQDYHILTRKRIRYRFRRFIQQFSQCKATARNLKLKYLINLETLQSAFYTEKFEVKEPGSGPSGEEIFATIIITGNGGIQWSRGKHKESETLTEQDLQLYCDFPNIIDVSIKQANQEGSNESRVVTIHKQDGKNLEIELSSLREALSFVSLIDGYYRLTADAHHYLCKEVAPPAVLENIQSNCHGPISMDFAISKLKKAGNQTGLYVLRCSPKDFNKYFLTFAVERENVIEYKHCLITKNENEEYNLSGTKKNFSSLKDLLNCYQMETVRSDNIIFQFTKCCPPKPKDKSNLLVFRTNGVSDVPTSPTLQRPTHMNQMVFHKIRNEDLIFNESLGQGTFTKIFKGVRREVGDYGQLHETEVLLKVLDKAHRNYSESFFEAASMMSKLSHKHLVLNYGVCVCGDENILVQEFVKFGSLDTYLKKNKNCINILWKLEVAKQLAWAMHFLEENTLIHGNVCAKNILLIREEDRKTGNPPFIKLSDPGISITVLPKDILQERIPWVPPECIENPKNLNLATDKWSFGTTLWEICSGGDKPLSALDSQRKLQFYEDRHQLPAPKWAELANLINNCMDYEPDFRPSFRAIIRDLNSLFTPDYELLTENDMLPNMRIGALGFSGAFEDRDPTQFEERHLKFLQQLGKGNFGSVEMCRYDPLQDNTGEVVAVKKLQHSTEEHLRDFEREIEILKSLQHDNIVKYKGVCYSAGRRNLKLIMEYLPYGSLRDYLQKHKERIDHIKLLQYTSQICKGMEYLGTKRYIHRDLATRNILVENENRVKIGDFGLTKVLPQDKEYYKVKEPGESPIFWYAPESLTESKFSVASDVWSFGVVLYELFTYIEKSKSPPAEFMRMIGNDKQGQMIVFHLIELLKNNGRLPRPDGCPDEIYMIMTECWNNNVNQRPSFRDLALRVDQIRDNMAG
IKKε, sequence (Q14164 whole entry): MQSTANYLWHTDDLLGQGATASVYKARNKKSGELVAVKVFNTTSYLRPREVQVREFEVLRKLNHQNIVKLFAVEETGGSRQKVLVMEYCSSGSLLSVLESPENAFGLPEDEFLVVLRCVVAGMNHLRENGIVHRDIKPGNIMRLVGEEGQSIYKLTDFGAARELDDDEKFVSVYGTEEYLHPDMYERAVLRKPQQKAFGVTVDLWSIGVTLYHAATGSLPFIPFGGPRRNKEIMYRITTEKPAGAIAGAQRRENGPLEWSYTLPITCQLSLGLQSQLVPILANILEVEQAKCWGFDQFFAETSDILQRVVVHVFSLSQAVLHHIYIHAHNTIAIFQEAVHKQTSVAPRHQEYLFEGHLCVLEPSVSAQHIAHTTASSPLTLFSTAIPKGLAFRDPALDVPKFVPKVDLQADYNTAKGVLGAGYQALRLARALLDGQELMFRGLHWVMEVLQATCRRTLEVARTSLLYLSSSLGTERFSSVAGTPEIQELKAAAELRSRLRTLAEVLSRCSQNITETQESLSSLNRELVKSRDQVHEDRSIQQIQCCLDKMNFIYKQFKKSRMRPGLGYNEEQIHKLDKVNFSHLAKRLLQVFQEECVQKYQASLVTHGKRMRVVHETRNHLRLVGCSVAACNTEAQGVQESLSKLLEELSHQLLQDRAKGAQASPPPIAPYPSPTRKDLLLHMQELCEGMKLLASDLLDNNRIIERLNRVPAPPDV

The term IC50 denotes the midpoint of a concentration-inhibition curve. Turning to `CC(C)[C@@H](O)C(=O)N1CC[C@H](Oc2ccc(-c3ncnc(Nc4ccc(N5CCN(C6COC6)CC5)cc4)n3)cc2C#N)[C@H](F)C1` [Example 465, 2-(((3R,4S)-3-fluoro-1-((R)-2-hydroxy-3-methylbutanoyl)piperidin-4-yl)oxy)-5-(4-((4-(4-(oxetan-3-yl)piperazin-1-yl)phenyl)amino)-1,3,5-triazin-2-yl)benzonitrile], the IC50 at hJAK2 was found to be 706 nM; at IKKε, 364 nM; at TBK1 it was 146 nM.

For the compound `N#CCC(=O)N1CC[C@H](Oc2ccc(-c3ncnc(Nc4ccc(N5CCO[C@@H](CO)C5)cc4)n3)cc2C#N)[C@H](F)C1` [Example 467, 2-(((3R,4S)-1-(2-cyanoacetyl)-3-fluoropiperidin-4-yl)oxy)-5-(4-((4-((R)-2-(hydroxymethyl)morpholino)phenyl)amino)-1,3,5-triazin-2-yl)benzonitrile], the IC50 on hJAK2 came to 171 nM; at IKKε, 4 nM; at TBK1 it was 4 nM.

For the compound `C[C@H](O)C(=O)N1CC[C@H](Oc2ccc(-c3ncnc(Nc4ccc(N5CCN(C6COC6)[C@@H](CO)C5)cc4)n3)cc2C#N)[C@H](F)C1` [Example 468, 2-(((3R,4S)-3-fluoro-1-((S)-2-hydroxypropanoyl)piperidin-4-yl)oxy)-5-(4-((4-((R)-3-(hydroxymethyl)-4-(oxetan-3-yl)piperazin-1-yl)phenyl)amino)-1,3,5-triazin-2-yl)benzonitrile], the IC50 at hJAK2 is 486 nM; on IKKε, 2 nM; against TBK1 it was 3 nM.

On to `C[C@H](O)C(=O)N1CC[C@H](Oc2ccc(-c3ncnc(Nc4ccc(N5CCN(C6COC6)[C@@H](CO)C5)cc4)n3)cc2C#N)C(F)(F)C1` [Example 469, 2-(((S)-3,3-difluoro-1-((S)-2-hydroxypropanoyl)piperidin-4-yl)oxy)-5-(4-((4-((R)-3-(hydroxymethyl)-4-(oxetan-3-yl)piperazin-1-yl)phenyl)amino)-1,3,5-triazin-2-yl)benzonitrile], for which the 50% inhibitory concentration (IC50) at hJAK2 stood at 197 nM; on IKKε it was 1 nM; against TBK1 it was 2 nM.

For `C[C@H](O)CC(=O)N1CC[C@H](Oc2ccc(-c3ncnc(Nc4ccc(N5CCN(C6COC6)CC5)cc4)n3)cc2C#N)[C@H](F)C1` [Example 470, 2-(((3R,4S)-3-fluoro-1-((S)-3-hydroxybutanoyl)piperidin-4-yl)oxy)-5-(4-((4-(4-(oxetan-3-yl)piperazin-1-yl)phenyl)amino)-1,3,5-triazin-2-yl)benzonitrile], the IC50 at hJAK2 was at least 1000 nM; on IKKε it was 44 nM; at TBK1 it was 12 nM.

Take `C[C@@H](O)CC(=O)N1CC[C@H](Oc2ccc(-c3ncnc(Nc4ccc(N5CCN(C6COC6)CC5)cc4)n3)cc2C#N)[C@H](F)C1` [Example 471, 2-(((3R,4S)-3-fluoro-1-((R)-3-hydroxybutanoyl)piperidin-4-yl)oxy)-5-(4-((4-(4-(oxetan-3-yl)piperazin-1-yl)phenyl)amino)-1,3,5-triazin-2-yl)benzonitrile]: the figures for the half-maximal inhibitory concentration (IC50) at hJAK2, on IKKε and against TBK1 were 702 nM, 14 nM and 6 nM, respectively.

Consider `N#Cc1cc(-c2ncnc(Nc3ccc(N4CCN(C5COC5)CC4)cc3)n2)ccc1O[C@H]1CCN(C(=O)C2(O)COC2)C[C@H]1F` [Example 472, 2-(((3R,4S)-3-fluoro-1-(3-hydroxyoxetane-3-carbonyl)piperidin-4-yl)oxy)-5-(4-((4-(4-(oxetan-3-yl)piperazin-1-yl)phenyl)amino)-1,3,5-triazin-2-yl)benzonitrile], for which the results for the IC50 on hJAK2, on IKKε and at TBK1 were 971 nM, 43 nM and 19 nM, respectively.

Take `N#Cc1cc(-c2ncnc(Nc3ccc(N4CCN(C5COC5)CC4)cc3)n2)ccc1O[C@H]1CCN(C(=O)c2cnco2)C[C@H]1F` [Example 473, 2-(((3R,4S)-3-fluoro-1-(oxazole-5-carbonyl)piperidin-4-yl)oxy)-5-(4-((4-(4-(oxetan-3-yl)piperazin-1-yl)phenyl)amino)-1,3,5-triazin-2-yl)benzonitrile]: the IC50 was 771 nM on hJAK2, 3 nM on IKKε and 3 nM against TBK1.

As to `COc1cc(Nc2ncnc(-c3ccc(O[C@H]4CCN(C(=O)[C@H](C)O)C[C@H]4F)c(C#N)c3)n2)ccn1` [Example 474], the IC50 is at least 1000 nM on hJAK2, 10 nM on IKKε and 6 nM against TBK1.

Take `N#Cc1cc(-c2ncnc(Nc3ccc(N4CCN(C5COC5)CC4)cc3)n2)ccc1O[C@H]1CCN(C(=O)[C@@H]2COCCN2)C[C@H]1F` [Example 475, 2-(((3R,4S)-3-fluoro-1-((S)-morpholine-3-carbonyl)piperidin-4-yl)oxy)-5-(4-((4-(4-(oxetan-3-yl)piperazin-1-yl)phenyl)amino)-1,3,5-triazin-2-yl)benzonitrile]: the IC50 on hJAK2 is at least 1000 nM; on IKKε, 50 nM; against TBK1, 23 nM.

Turning to `C[C@H](O)C(=O)N1CC[C@H](Oc2ccc(-c3ncnc(Nc4ccc(-c5ccn(C)c(=O)c5)cc4)n3)cc2C#N)[C@H](F)C1` [Example 476, 2-(((3R,4S)-3-fluoro-1-((S)-2-hydroxypropanoyl)piperidin-4-yl)oxy)-5-(4-((4-(1-methyl-2-oxo-1,2-dihydropyridin-4-yl)phenyl)amino)-1,3,5-triazin-2-yl)benzonitrile], the concentration for half-maximal inhibition (IC50) was at least 1000 nM at hJAK2, 3 nM at IKKε and 3 nM against TBK1.

`N#Cc1cc(-c2ncnc(Nc3ccc(N4CCN(C5COC5)CC4)cc3)n2)ccc1O[C@H]1CCN(C(=O)c2cocn2)C[C@H]1F` [Example 477, 2-(((3R,4S)-3-fluoro-1-(oxazole-4-carbonyl)piperidin-4-yl)oxy)-5-(4-((4-(4-(oxetan-3-yl)piperazin-1-yl)phenyl)amino)-1,3,5-triazin-2-yl)benzonitrile]: the IC50 amounted to 526 nM at hJAK2, 2 nM at IKKε and 3 nM against TBK1.

Take `N#Cc1cc(-c2ncnc(Nc3ccc(N4CCN(C5COC5)CC4)cc3)n2)ccc1O[C@H]1CCN(C(=O)NO)C[C@H]1F` [Example 478, (3R,4S)-4-(2-cyano-4-(4-((4-(4-(oxetan-3-yl)piperazin-1-yl)phenyl)amino)-1,3,5-triazin-2-yl)phenoxy)-3-fluoro-N-hydroxypiperidine-1-carboxamide]: the 50% inhibitory concentration (IC50) on hJAK2 amounted to 135 nM; at IKKε it was 1 nM; on TBK1, 3 nM.

Take `COc1cc(Nc2ncnc(-c3ccc(O[C@H]4CCN(C(=O)[C@@H](O)CO)CC4(F)F)c(C#N)c3)n2)ccn1` [Example 479, 2-(((S)-1-((S)-2,3-dihydroxypropanoyl)-3,3-difluoropiperidin-4-yl)oxy)-5-(4-((2-methoxypyridin-4-yl)amino)-1,3,5-triazin-2-yl)benzonitrile]: the values for the IC50 at hJAK2, at IKKε and at TBK1 were at least 1000 nM, 1 nM and 2 nM, respectively.

With `N#Cc1cc(-c2ncnc(Nc3ccc(N4CCN(C5COC5)CC4)cc3)n2)ccc1O[C@H]1CCN(c2ccccn2)C[C@H]1F` [Example 480, 2-(((3R,4S)-3-fluoro-1-(pyridin-2-yl)piperidin-4-yl)oxy)-5-(4-((4-(4-(oxetan-3-yl)piperazin-1-yl)phenyl)amino)-1,3,5-triazin-2-yl)benzonitrile], the IC50 is at least 1000 nM on hJAK2, 180 nM on IKKε and 47 nM against TBK1.

In the case of `CS(=N)(=O)c1ccc(Nc2ncnc(-c3ccc(O[C@H]4CCN(C=O)CC4(F)F)c(C#N)c3)n2)cc1` (stereo partly drawn) [Example 482, 2-(((S)-3,3-difluoro-1-formylpiperidin-4-yl)oxy)-5-(4-((4-(S-methylsulfonimidoyl)phenyl)amino)-1,3,5-triazin-2-yl)benzonitrile], the IC50 on hJAK2 stood at 221 nM; on IKKε, 7 nM; against TBK1, 5 nM.

`COc1cc(Nc2ncnc(-c3ccc(O[C@H]4CCN(C(=O)[C@H](C)O)C[C@H]4F)c(C#N)c3)n2)ccc1S(C)(=O)=O` [Example 483, 2-(((3R,4S)-3-fluoro-1-((S)-2-hydroxypropanoyl)piperidin-4-yl)oxy)-5-(4-((3-methoxy-4-(methylsulfonyl)phenyl)amino)-1,3,5-triazin-2-yl)benzonitrile]: the IC50 was at least 1000 nM on hJAK2, 6 nM on IKKε and 8 nM at TBK1.

For `CS(=O)(=O)c1ccc(-c2ncnc(Nc3ccc(N4CCN(C5COC5)CC4)cc3)n2)cc1` [Example 484, 4-(4-(methylsulfonyl)phenyl)-N-(4-(4-(oxetan-3-yl)piperazin-1-yl)phenyl)-1,3,5-triazin-2-amine, trifluoroacetic acid salt], the IC50 was 837 nM on hJAK2, at least 1000 nM on IKKε and 1000 nM at TBK1.

For `Cc1cc(Nc2ncnc(-c3ccc(O[C@H]4CCN(C(=O)c5cn(C)nn5)C[C@H]4F)c(C#N)c3)n2)ccc1C1CCN(C)CC1` [Example 485, 2-(((3R,4S)-3-fluoro-1-(1-methyl-1H-1,2,3-triazole-4-carbonyl)piperidin-4-yl)oxy)-5-(4-((3-methyl-4-(1-methylpiperidin-4-yl)phenyl)amino)-1,3,5-triazin-2-yl)benzonitrile], the results for the IC50 on hJAK2, on IKKε and on TBK1 were 576 nM, 1 nM and 3 nM, respectively.

Turning to `C[C@H](O)C(=O)N1CC[C@H](Oc2ccc(-c3ncnc(Nc4cccc(C(C)(C)O)c4)n3)cc2C#N)[C@H](F)C1` [Example 486, 2-(((3R,4S)-3-fluoro-1-((S)-2-hydroxypropanoyl)piperidin-4-yl)oxy)-5-(4-((3-(2-hydroxypropan-2-yl)phenyl)amino)-1,3,5-triazin-2-yl)benzonitrile], the IC50 on hJAK2 was found to be 767 nM; on IKKε, 5 nM; on TBK1 it was 3 nM.

For the compound `Cc1cc(Nc2ncnc(-c3ccc(O[C@H]4CCN(C(=O)[C@H](C)O)C[C@H]4F)c(C#N)c3)n2)ccc1C1CCN(C)CC1` [Example 487, 2-(((3R,4S)-3-fluoro-1-((S)-2-hydroxypropanoyl)piperidin-4-yl)oxy)-5-(4-((3-methyl-4-(1-methylpiperidin-4-yl)phenyl)amino)-1,3,5-triazin-2-yl)benzonitrile], the IC50 on hJAK2 is 324 nM; at IKKε it was 1 nM; on TBK1, 3 nM.
